Experiments:
Experiment in all cases: relative viability (nuclei count vs DMSO), 5 days (fraction); higher = more cells survive
DM3189 + AZD7762 = compound: C1CN(CCN1)C2=CC=C(C=C2)C3=CN4C(=C(C=N4)C5=CC=NC6=CC=CC=C56)N=C3 [DM3189] + NC(=O)Nc1cc(-c2cccc(F)c2)sc1C(=O)N[C@H]1CCCNC1 [AZD7762] (partner 0.2 µM)
Summary of the method: (§1)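 Lung cancer cell lines in 1536-well plates were dosed by pin tool the day after seeding, either with one drug alone or with a fixed anchor-drug dose plus five library-drug doses (not always all listed) in √10 steps. After 5 days, cells were fixed and their nuclei stained in one step (final 0.05% Triton X-100, 1% formaldehyde, 1 ug/ml Hoechst), then counted on 4× images. Relative viability is the nuclei count in treated wells divided by that in vehicle wells. Values are medians of duplicate plates.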

DM3189 + Dasatinib = compound: C1CN(CCN1)C2=CC=C(C=C2)C3=CN4C(=C(C=N4)C5=CC=NC6=CC=CC=C56)N=C3 [DM3189] + Cc1nc(Nc2ncc(C(=O)Nc3c(C)cccc3Cl)s2)cc(N2CCN(CCO)CC2)n1 [Dasatinib] (partner 0.075 µM)
Summary of the method: as §1

DM3189 + Trametinib = compound: C1CN(CCN1)C2=CC=C(C=C2)C3=CN4C(=C(C=N4)C5=CC=NC6=CC=CC=C56)N=C3 [DM3189] + CC(=O)Nc1cccc(-n2c(=O)n(C3CC3)c(=O)c3c(Nc4ccc(I)cc4F)n(C)c(=O)c(C)c32)c1 [Trametinib] (partner 0.02 µM)
Summary of the method: as §1

DM3189 + Palbociclib = compound: C1CN(CCN1)C2=CC=C(C=C2)C3=CN4C(=C(C=N4)C5=CC=NC6=CC=CC=C56)N=C3 [DM3189] + CC(=O)c1c(C)c2cnc(Nc3ccc(N4CCNCC4)cn3)nc2n(C2CCCC2)c1=O [Palbociclib] (partner 0.5 µM)
Summary of the method: as §1

DM3189 + Tozasertib = compound: C1CN(CCN1)C2=CC=C(C=C2)C3=CN4C(=C(C=N4)C5=CC=NC6=CC=CC=C56)N=C3 [DM3189] + Cc1cc(Nc2cc(N3CCN(C)CC3)nc(Sc3ccc(NC(=O)C4CC4)cc3)n2)n[nH]1 [Tozasertib] (partner 0.1 µM)
Summary of the method: as §1

Row | Cell Line | relative viability (DM3189 + AZD7762; first compound 0.08 µM) | relative viability (DM3189 + AZD7762; first compound 0.253 µM) | relative viability (DM3189 + AZD7762; first compound 0.8 µM) | relative viability (DM3189 + AZD7762; first compound 2.53 µM) | relative viability (DM3189 + Dasatinib; first compound 0.08 µM) | relative viability (DM3189 + Dasatinib; first compound 0.253 µM) | relative viability (DM3189 + Dasatinib; first compound 0.8 µM) | relative viability (DM3189 + Dasatinib; first compound 2.53 µM) | relative viability (DM3189 + Trametinib; first compound 0.08 µM) | relative viability (DM3189 + Trametinib; first compound 0.253 µM) | relative viability (DM3189 + Trametinib; first compound 0.8 µM) | relative viability (DM3189 + Trametinib; first compound 2.53 µM) | relative viability (DM3189 + Palbociclib; first compound 0.08 µM) | relative viability (DM3189 + Palbociclib; first compound 0.253 µM) | relative viability (DM3189 + Palbociclib; first compound 0.8 µM) | relative viability (DM3189 + Palbociclib; first compound 2.53 µM) | relative viability (DM3189 + Tozasertib; first compound 0.08 µM) | relative viability (DM3189 + Tozasertib; first compound 0.253 µM) | relative viability (DM3189 + Tozasertib; first compound 0.8 µM) | relative viability (DM3189 + Tozasertib; first compound 2.53 µM)
1 | 201T | 0.717 | 0.639 | 0.611 | 0.537 | 0.589 | 0.543 | 0.385 | 0.557 | 0.729 | 0.743 | 0.728 | 0.734 | 0.419 | 0.364 | 0.342 | 0.366 | 0.998 | 0.913 | 1.02 | 0.781
2 | NCI-H322M | 0.662 | 0.644 | 0.662 | 0.519 | 0.268 | 0.251 | 0.235 | 0.218 | 0.532 | 0.518 | 0.517 | 0.511 | 0.501 | 0.489 | 0.516 | 0.43 | 0.481 | 0.427 | 0.448 | 0.404
3 | NCI-H838 | 0.979 | 0.856 | 0.816 | 0.895 | 0.346 | 0.303 | 0.261 | 0.274 | 0.57 | 0.454 | 0.388 | 0.496 | 0.265 | 0.224 | 0.174 | 0.205 | 0.256 | 0.249 | 0.255 | 0.281
4 | NCI-H460 | 0.784 | 0.524 | 0.395 | 0.691 | 0.728 | 0.532 | 0.47 | 0.666 | 0.341 | 0.242 | 0.154 | 0.241 | 0.305 | 0.187 | 0.158 | 0.16 | 0.384 | 0.393 | 0.12 | 0.277
5 | SK-LU-1 | – | – | – | – | 0.143 | 0.109 | 0.104 | 0.136 | 0.441 | 0.402 | 0.429 | 0.378 | 0.339 | 0.268 | 0.329 | 0.31 | 0.241 | 0.204 | 0.248 | 0.219
6 | HCC-44 | 0.984 | 1.03 | 0.92 | 0.996 | – | – | – | – | 1.07 | 1.09 | 0.897 | 1.2 | 0.898 | 0.976 | 0.798 | 0.951 | 0.999 | 0.912 | 0.727 | 0.954
7 | SW 1573 | – | – | – | – | 0.741 | 0.389 | 0.46 | 0.382 | 0.677 | 0.6 | 0.53 | 0.539 | 0.454 | 0.342 | 0.339 | 0.255 | 0.212 | 0.171 | 0.142 | 0.153
8 | NCI-H1703 | 0.122 | 0.191 | 0.119 | 0.135 | – | – | – | – | – | – | – | – | – | – | – | – | – | – | – | –
9 | NCI-H661 | – | – | – | – | 1.05 | 0.832 | 0.787 | 0.862 | 0.7 | 0.581 | 0.642 | 0.623 | 0.411 | 0.394 | 0.396 | 0.381 | 0.36 | 0.346 | 0.351 | 0.336
10 | COR-L 105 | – | – | – | – | 0.427 | 0.449 | 0.348 | 0.327 | 0.467 | 0.488 | 0.471 | 0.504 | 0.408 | 0.441 | 0.353 | 0.489 | 0.434 | 0.371 | 0.32 | 0.358
11 | NCI-H2009 | – | – | – | – | 0.287 | 0.267 | 0.263 | 0.244 | 0.276 | 0.268 | 0.263 | 0.23 | 0.264 | 0.195 | 0.184 | 0.217 | 0.678 | 0.69 | 0.67 | 0.673
12 | NCI-H520 | – | – | – | – | 0.24 | 0.219 | 0.258 | 0.197 | 0.672 | 0.413 | 0.43 | 0.321 | 0.206 | 0.202 | 0.206 | 0.173 | 0.491 | 0.33 | 0.364 | 0.313
13 | NCI-H1650 | – | – | – | – | 0.333 | 0.391 | 0.304 | 0.316 | 0.749 | 0.608 | 0.677 | 0.738 | 0.407 | 0.292 | 0.349 | 0.309 | 0.322 | 0.362 | 0.389 | 0.377
14 | NCI-H1792 | 0.796 | 0.65 | 0.593 | 0.616 | 0.547 | 0.899 | 0.716 | 0.927 | 0.538 | 0.482 | 0.438 | 0.62 | 0.569 | 0.675 | 0.716 | 0.609 | – | – | – | –
15 | SK-MES-1 | – | – | – | – | 0.322 | 0.263 | 0.265 | 0.237 | 0.54 | 0.485 | 0.481 | 0.548 | 0.236 | 0.26 | 0.343 | 0.305 | 0.901 | 0.831 | 0.687 | 0.87
16 | NCI-H1563 | – | – | – | – | 0.441 | 0.381 | 0.459 | 0.483 | – | – | – | – | – | – | – | – | – | – | – | –
17 | COR-L23 | – | – | – | – | 0.543 | 0.525 | 0.458 | 0.525 | 0.707 | 0.507 | 0.529 | 0.549 | 0.292 | 0.242 | 0.201 | 0.192 | 0.19 | 0.196 | 0.147 | 0.187
18 | UMC-11 | – | – | – | – | 0.467 | 0.429 | 0.467 | 0.401 | 0.745 | 0.706 | 0.59 | 0.62 | 0.371 | 0.333 | 0.313 | 0.323 | 0.189 | 0.201 | 0.199 | 0.21
19 | NCI-H2228 | – | – | – | – | 0.577 | 0.41 | 0.545 | 0.245 | 0.476 | 0.494 | 0.581 | 0.236 | 1.09 | 0.75 | 0.472 | 0.307 | 0.236 | 0.207 | 0.227 | 0.156
